Results from ChEMBL document CHEMBL5143664, “New synthetic phenylquinazoline derivatives induce apoptosis by targeting the pro-survival members of the BCL-2 family” (Bioorg Med Chem Lett, 2022).
Activity calls are given as the source filed them. The rule behind the calls is not given here.

Key:
Type in all cases: functional, cell-based
MCF7 [1] = test: Antiproliferative activity against human cisplatin resistant human MCF7-CR cells assessed as reduction in cell viability at 15 uM after 24 hrs by MTT assay relative to control
MCF7 [2] = test: Antiproliferative activity against human MCF7 cells assessed as reduction in cell viability at 15 uM after 24 hrs by MTT assay relative to control
MCF7 [3] = test: Antiproliferative activity against cisplatin-resistant human MCF7-CR cells assessed as reduction in cell viability after 24 hrs by MTT assay; settings: MCF7, 24 h
MCF7 [4] = test: Antiproliferative activity against human MCF7 cells assessed as reduction in cell viability after 24 hrs by MTT assay; settings: MCF7, 24 h
MCF7 [5] = test: Synergistic antiproliferative activity against cisplatin-resistant human MCF7-CR cells assessed as reduction in cell viability in presence of cisplatin after 24 hrs by MTT assay; settings: MCF7, 24 h
MCF7 [6] = test: Antiproliferative activity against human MCF7 cells transfected with BCLXL C5 vector assessed as reduction in cell viability after 24 hrs by MTT assay; settings: MCF7, 24 h
MCF7 [7] = test: Antiproliferative activity against cisplatin-resistant human MCF7-CR cells transfected with empty vector assessed as reduction in cell viability after 24 hrs by MTT assay; settings: MCF7, 24 h
MCF7 [8] = test: Induction of cell death in human MCF7 cells assessed as reduction in cell volume at 10 uM after 24 hrs
MCF7 [9] = test: Antiproliferative activity against cisplatin-resistant human MCF7-CR cells transfected with MBR C3 vector assessed as reduction in cell viability after 24 hrs by MTT assay; settings: MCF7, 24 h
MCF7 [10] = test: Antiproliferative activity against human MCF7 cells transfected with MBR C3 vector assessed as reduction in cell viability after 24 hrs by MTT assay; settings: MCF7, 24 h
MCF7 [11] = test: Synergistic antiproliferative activity against cisplatin-resistant human MCF7-CR cells assessed as reduction in cell viability in presence of taxol after 24 hrs by MTT assay; settings: MCF7, 24 h
MCF7 [12] = test: Inhibition of colony formation in human MCF7 cells at 5 to 25 uM after 7 days; settings: dose 5-25 µM, time 7.0 day, DDE = dose-dependent effect
MCF7 [13] = test: Induction of cell death in human MCF7 cells assessed as round cell morphology at 10 uM after 24 hrs
MCF7 [14] = test: Antiproliferative activity against human MCF7 cells transfected with empty vector assessed as reduction in cell viability after 24 hrs by MTT assay; settings: MCF7, 24 h
MCF7 [15] = test: Antiproliferative activity against cisplatin-resistant human MCF7-CR cells cultured as 3D-spheroids assessed as reduction in cell viability at 5 to 25 uM after 24 hrs by alamar blue assay; settings: dose 5-25 µM, DDE = dose-dependent effect
MCF7 [16] = test: Induction of apoptosis in cisplatin-resistant human MCF7-CR cells assessed as decrease in BCLXL protein expression at 5 to 25 uM after 16 hrs by western blot analysis; settings: dose 5-25 µM
MCF7 [17] = test: Antiproliferative activity against human MCF7 cells cultured as 3D-spheroids assessed as reduction in cell viability at 5 to 25 uM after 24 hrs by alamar blue assay; settings: dose 5-25 µM, DDE = dose-dependent effect
MCF7 [18] = test: Induction of apoptosis in cisplatin-resistant human MCF7-CR cells assessed as decrease in BCL2 protein expression at 5 to 25 uM after 16 hrs by western blot analysis; settings: dose 5-25 µM, DDE = dose-dependent effect
MCF7 [19] = test: Inhibition of colony formation in cisplatin-resistant human MCF7-CR cells at 5 to 25 uM after 7 days; settings: dose 5-25 µM, time 7.0 day, DDE = dose-dependent effect
MCF7 [20] = test: Induction of cell death in cisplatin-resistant human MCF7-CR cells assessed as round cell morphology at 10 uM after 24 hrs
MCF7 [21] = test: Synergistic antiproliferative activity against cisplatin-resistant human MCF7-CR cells assessed as reduction in cell viability in presence of ABT737 after 24 hrs by MTT assay; settings: MCF7, 24 h
MCF7 [22] = test: Induction of cell death in cisplatin-resistant human MCF7-CR cells assessed as reduction in cell volume at 10 uM after 24 hrs
MCF7 [23] = test: Induction of apoptosis in cisplatin-resistant human MCF7-CR cells assessed as increase in release of cytochrome C in cytosol expression at 10 to 25 uM after 16 hrs by western blot analysis; settings: dose 10-25 µM, DDE = dose-dependent effect
MCF7 [24] = test: Antiproliferative activity against cisplatin-resistant human MCF7-CR cells transfected with MBR C2 vector assessed as reduction in cell viability after 24 hrs by MTT assay; settings: MCF7, 24 h

## CCCCOc1ccc(-c2nc(-c3ccccc3)c3cc(Cl)ccc3n2)cc1
MCF7 [1]
  Activity: Active
MCF7 [2]
  Activity: Active

## Cc1ccc(-c2nc(-c3ccccc3)c3cc(Cl)ccc3n2)cc1
MCF7 [1]
  Activity: Active
MCF7 [2]
  Activity: Active

## CCOc1cc(-c2nc(-c3ccccc3)c3cc(Cl)ccc3n2)ccc1OC
MCF7 [1]
  Activity: Active
MCF7 [2]
  Activity: Active

## CN(C)CC[C@H](CSc1ccccc1)Nc1ccc(S(=O)(=O)NC(=O)c2ccc(N3CCN(Cc4ccccc4-c4ccc(Cl)cc4)CC3)cc2)cc1[N+](=O)[O-] [ABT 737]
MCF7 [3]
  EC50: 4.39 µM

## Fc1cc(-c2nc(-c3ccccc3)c3cc(Cl)ccc3n2)ccc1Br
MCF7 [4]
  EC50: 5.02 µM
MCF7 [5]
  EC50: 4.89 µM
MCF7 [6]
  EC50: 6.87 µM
MCF7 [7]
  EC50: 22.4 µM
MCF7 [8]
  Activity: Active
MCF7 [9]
  EC50: 5.19 µM
MCF7 [10]
  EC50: 2.96 µM
MCF7 [11]
  EC50: 1.23 µM
MCF7 [12]
  Activity: Dde
MCF7 [13]
  Activity: Active
MCF7 [14]
  EC50: 8.62 µM
MCF7 [15]
  Activity: Dde
MCF7 [16]
  Activity: Active
MCF7 [17]
  Activity: Dde
MCF7 [1]
  Activity: Active
MCF7 [18]
  Activity: Dde
MCF7 [19]
  Activity: Dde
MCF7 [20]
  Activity: Active
MCF7 [21]
  EC50: 0.29 µM
MCF7 [22]
  Activity: Active
MCF7 [23]
  Activity: Dde
MCF7 [24]
  EC50: 5.04 µM
MCF7 [2]
  Activity: Active
MCF7 [3]
  EC50: 5.44 µM

## CC(C)(C)c1ccc(-c2nc(-c3ccccc3)c3cc(Cl)ccc3n2)cc1
MCF7 [1]
  Activity: Active
MCF7 [2]
  Activity: Active

## CCOc1ccc(-c2nc(-c3ccccc3)c3cc(Cl)ccc3n2)cc1
MCF7 [1]
  Activity: Active
MCF7 [2]
  Activity: Active

## CC(=O)O[C@H]1C(=O)[C@@]2(C)[C@H]([C@H](OC(=O)c3ccccc3)[C@]3(O)C[C@H](OC(=O)[C@H](O)[C@@H](NC(=O)c4ccccc4)c4ccccc4)C(C)=C1C3(C)C)[C@]1(OC(C)=O)CO[C@@H]1C[C@@H]2O [PACLITAXEL]
MCF7 [3]
  EC50: 44.7 µM

## Oc1cccc(-c2nc(-c3ccccc3)c3cc(Cl)ccc3n2)c1O
MCF7 [1]
  Activity: Active
MCF7 [2]
  Activity: Active

## COc1ccc(-c2nc(-c3ccccc3)c3cc(Cl)ccc3n2)c(F)c1
MCF7 [1]
  Activity: Active
MCF7 [2]
  Activity: Active

## Oc1ccccc1-c1nc(-c2ccccc2)c2cc(Cl)ccc2n1
MCF7 [4]
  EC50: 6.3 µM
MCF7 [5]
  EC50: 9.12 µM
MCF7 [6]
  EC50: 10.2 µM
MCF7 [7]
  EC50: 29.4 µM
MCF7 [8]
  Activity: Active
MCF7 [9]
  EC50: 6.31 µM
MCF7 [10]
  EC50: 3.03 µM
MCF7 [11]
  EC50: 3.55 µM
MCF7 [12]
  Activity: Dde
MCF7 [13]
  Activity: Active
MCF7 [14]
  EC50: 14.2 µM
MCF7 [15]
  Activity: Dde
MCF7 [16]
  Activity: Active
MCF7 [17]
  Activity: Dde
MCF7 [1]
  Activity: Active
MCF7 [18]
  Activity: Dde
MCF7 [19]
  Activity: Dde
MCF7 [20]
  Activity: Active
MCF7 [21]
  EC50: 0.53 µM
MCF7 [22]
  Activity: Active
MCF7 [23]
  Activity: Dde
MCF7 [24]
  EC50: 5.73 µM
MCF7 [2]
  Activity: Active
MCF7 [3]
  EC50: 21.4 µM

## FC(F)(F)c1ccc(-c2nc(-c3ccccc3)c3cc(Cl)ccc3n2)cc1
MCF7 [1]
  Activity: Active
MCF7 [2]
  Activity: Active
